The NIST ThermoML archive (doi:10.1016/j.tca.2013.05.017)

Settings: 101.33 kPa, Crystal 2, Small (less than 1 g) adiabatic calorimetry

O=S(=O)([O-])[O-].[Sr+2] [sulfuric acid, strontium salt (1:1)]
Settings	molar entropy [J/K/mol]
5 K	0.01272
10 K	0.1188
15 K	0.4903
20 K	1.25
25 K	2.413
30 K	3.947
35 K	5.8
40 K	7.917
45 K	10.25
50 K	12.75
55 K	15.38
60 K	18.11
65 K	20.88
70 K	23.69
75 K	26.51
80 K	29.33
85 K	32.13
90 K	34.9
95 K	37.65
100 K	40.36
110 K	45.67
120 K	50.82
130 K	55.82
140 K	60.67
150 K	65.39
160 K	69.99
170 K	74.46
180 K	78.81
190 K	83.06
200 K	87.2
210 K	91.24
220 K	95.18
230 K	99.04
240 K	102.82
250 K	106.52
260 K	110.15
270 K	113.73
273.15 K	114.84
280 K	117.23
290 K	120.68
298.15 K	123.44
300 K	124.06
310 K	127.38
320 K	130.64
